Data as given in the supplement of paper PMC10307832.

Assays:
Experiment in all cases: relative viability (nuclei count vs DMSO), 5 days (fraction); higher = more cells survive
Selumetinib + Luminespib = compound: Cn1cnc2c(F)c(Nc3ccc(Br)cc3Cl)c(C(=O)NOCCO)cc21 [Selumetinib] + CCNC(=O)c1noc(-c2cc(C(C)C)c(O)cc2O)c1-c1ccc(CN2CCOCC2)cc1 [Luminespib] (partner 0.01 µM)
In short: (§1)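 Lung cancer cell lines were seeded in 1536-well plates and dosed by pin tool the next day, with either a single drug or a fixed anchor-drug dose combined with five library-drug doses (not always all listed) spaced in √10 steps. Five days later, one step fixed the cells and stained their nuclei (final 0.05% Triton X-100, 1% formaldehyde, 1 ug/ml Hoechst), and nuclei were counted on 4× images. Relative viability is the nuclei count in treated wells divided by the count in vehicle wells, and each value is the median of duplicate plates.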

Venetoclax + Phenformin = compound: CC1(C)CCC(CN2CCN(c3ccc(C(=O)NS(=O)(=O)c4ccc(NCC5CCOCC5)c([N+](=O)[O-])c4)c(Oc4cnc5[nH]ccc5c4)c3)CC2)=C(c2ccc(Cl)cc2)C1 [Venetoclax] + N=C(N)NC(=N)NCCc1ccccc1 [Phenformin] (partner 250 µM)
In short: as §1

[1] = compound: Cn1cnc2c(F)c(Nc3ccc(Br)cc3Cl)c(C(=O)NOCCO)cc21 [Selumetinib] + CC(=O)c1c(C)c2cnc(Nc3ccc(N4CCNCC4)cn3)nc2n(C2CCCC2)c1=O [Palbociclib] (partner 0.5 µM)
In short: as §1

Selumetinib + OSI-027 = compound: Cn1cnc2c(F)c(Nc3ccc(Br)cc3Cl)c(C(=O)NOCCO)cc21 [Selumetinib] + COc1cccc2cc(-c3nc([C@H]4CC[C@H](C(=O)O)CC4)n4ncnc(N)c34)[nH]c12 [OSI-027] (partner 0.5 µM)
In short: as §1

## UMC-11
Selumetinib + Luminespib; first compound 0.02 µM
  relative viability: 1.14
Selumetinib + Luminespib; first compound 0.06325 µM
  relative viability: 0.869
Selumetinib + Luminespib; first compound 0.2 µM
  relative viability: 1.08
Selumetinib + Luminespib; first compound 0.6325 µM
  relative viability: 0.967
Venetoclax + Phenformin; first compound 0.01 µM
  relative viability: 0.286
Venetoclax + Phenformin; first compound 0.03162 µM
  relative viability: 0.319
Venetoclax + Phenformin; first compound 0.1 µM
  relative viability: 0.32
Venetoclax + Phenformin; first compound 0.3162 µM
  relative viability: 0.291
Venetoclax + Phenformin; first compound 1 µM
  relative viability: 0.292
[1]; first compound 0.02 µM
  relative viability: 0.309
[1]; first compound 0.06325 µM
  relative viability: 0.37
[1]; first compound 0.2 µM
  relative viability: 0.306
[1]; first compound 0.6325 µM
  relative viability: 0.34
Selumetinib + OSI-027; first compound 0.02 µM
  relative viability: 0.459
Selumetinib + OSI-027; first compound 0.06325 µM
  relative viability: 0.471
Selumetinib + OSI-027; first compound 0.2 µM
  relative viability: 0.379
Selumetinib + OSI-027; first compound 0.6325 µM
  relative viability: 0.45
